The target of test [1] is T1, 5-hydroxytryptamine receptor 3B (Mus musculus, UniProt Q9JHJ5).
T1 sequence (Q9JHJ5 whole entry): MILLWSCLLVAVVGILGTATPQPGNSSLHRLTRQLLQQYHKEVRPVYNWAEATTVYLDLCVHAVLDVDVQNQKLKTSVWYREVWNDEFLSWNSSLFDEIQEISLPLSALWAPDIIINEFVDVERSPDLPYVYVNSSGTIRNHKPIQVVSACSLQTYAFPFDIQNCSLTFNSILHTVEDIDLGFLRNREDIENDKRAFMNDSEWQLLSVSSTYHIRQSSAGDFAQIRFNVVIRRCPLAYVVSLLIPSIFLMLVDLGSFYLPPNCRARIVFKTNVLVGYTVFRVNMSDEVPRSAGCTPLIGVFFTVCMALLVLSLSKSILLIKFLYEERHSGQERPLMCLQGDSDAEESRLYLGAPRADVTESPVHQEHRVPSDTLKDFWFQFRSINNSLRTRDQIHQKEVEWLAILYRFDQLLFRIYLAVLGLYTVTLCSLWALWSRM
The experiment in a line: In vitro binding affinity for the 5-hydroxytryptamine 3 receptor was determined with NG-108-15 mouse neuroblastoma-glioma cells.

The target of test [2] is Serotonin 3 (5-HT3) receptor (Rattus norvegicus) (UniProt P35563+Q9JJ16). Nature of the test: Tested for inhibition of Bezold-Jarisch (B-J) reflex mediated by 5-hydroxytryptamine 3 receptor in rats after intravenous administration (2.0 ug/kg). The class given is functional, organism-based.
Test [3] deals with 5-hydroxytryptamine receptor 3A (Mus musculus) (UniProt P23979). The experiment in a line: In vitro binding affinity for the 5-hydroxytryptamine 3 receptor was determined with NG-108-15 mouse neuroblastoma-glioma cells.
Sequence of 5-hydroxytryptamine receptor 3A (Mus musculus) (P23979 whole entry, looked up): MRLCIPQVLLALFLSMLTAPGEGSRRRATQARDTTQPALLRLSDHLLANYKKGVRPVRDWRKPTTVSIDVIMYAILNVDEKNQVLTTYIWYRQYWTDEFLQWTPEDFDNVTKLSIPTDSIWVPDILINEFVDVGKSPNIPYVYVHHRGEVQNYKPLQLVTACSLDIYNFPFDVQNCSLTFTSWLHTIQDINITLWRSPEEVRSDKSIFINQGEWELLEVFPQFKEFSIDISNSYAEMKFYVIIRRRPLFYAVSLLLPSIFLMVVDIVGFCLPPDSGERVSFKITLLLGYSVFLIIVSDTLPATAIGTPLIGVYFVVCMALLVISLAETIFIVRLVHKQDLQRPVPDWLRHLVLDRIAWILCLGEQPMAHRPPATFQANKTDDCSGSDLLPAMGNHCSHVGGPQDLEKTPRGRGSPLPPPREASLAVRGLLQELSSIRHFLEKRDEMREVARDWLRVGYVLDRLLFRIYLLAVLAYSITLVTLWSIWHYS

7 compounds from ChEMBL document CHEMBL1124976, “An initial three-component pharmacophore for specific serotonin-3 receptor ligands” (J Med Chem, 1990) can be followed below.

Where only a bound is given, the exact number is not on record here.

For orientation: Ki means a dissociation constant, usually derived from enzyme kinetics or from competition with a known ligand. A lower Ki goes with a stronger hold on the target. What is called inhibition is the percentage by which the read-out fell short of the control.

For `CN(Cc1nc(-c2c[nH]c3ccccc23)cs1)C(=N)N`, the inhibition constant Ki in test [1] was over 0.001 µM. As to `N=C(N)NCc1nc(-c2c[nH]c3ccccc23)cs1`, the inhibition in test [2] came to 51%. In addition, in test [3], affinity was put at a Ki of 0.0033 µM. The compound `COc1cc(N)c(Cl)cc1C(=O)NC1CN2CCC1CC2` (stereo not drawn) showed an inhibition in test [2] of 84%.

On to `N=C(N)NCc1ccccn1`, for which, in test [1], the inhibition constant Ki turned out to be 0.082 µM.

As for `Cc1nc[nH]c1Cc1nc(-c2c[nH]c3ccccc23)cs1`, the Ki in test [1] is 0.01 µM.

`Cc1csc(CNC(=N)N)n1`: the Ki in test [1] turned out to be 0.116 µM. For `Cc1nccn1CC1CCc2c(c3ccccc3n2C)C1=O` (stereo not drawn), the inhibition in test [2] was 43%.
